Article PMC9599641, “TNP Analogues Inhibit the Virulence Promoting IP3-4 Kinase Arg1 in the Fungal Pathogen Cryptococcus neoformans” (Biomolecules, 2022)
“Also recorded” adds a separate entry of the source. Where two headings read alike, the source gives them in different places.

Experiments:
[1] = molecular target: CnArg1 (IP3-4K from C. neoformans) (Cryptococcus neoformans var. grubii, UniProt J9W3G0); experiment: Kinase-Glo enzyme inhibition assay, recombinant CnArg1; assay type: biochemical; conditions: 10 µM ATP, 50 µM IP3, 2.5 ng/µL enzyme, 10 min, room temperature, 5% DMSO; mean ± SEM
CnArg1 (IP3-4K from C. neoformans) (Cryptococcus neoformans var. grubii, UniProt J9W3G0), sequence (J9W3G0 entry or part of it): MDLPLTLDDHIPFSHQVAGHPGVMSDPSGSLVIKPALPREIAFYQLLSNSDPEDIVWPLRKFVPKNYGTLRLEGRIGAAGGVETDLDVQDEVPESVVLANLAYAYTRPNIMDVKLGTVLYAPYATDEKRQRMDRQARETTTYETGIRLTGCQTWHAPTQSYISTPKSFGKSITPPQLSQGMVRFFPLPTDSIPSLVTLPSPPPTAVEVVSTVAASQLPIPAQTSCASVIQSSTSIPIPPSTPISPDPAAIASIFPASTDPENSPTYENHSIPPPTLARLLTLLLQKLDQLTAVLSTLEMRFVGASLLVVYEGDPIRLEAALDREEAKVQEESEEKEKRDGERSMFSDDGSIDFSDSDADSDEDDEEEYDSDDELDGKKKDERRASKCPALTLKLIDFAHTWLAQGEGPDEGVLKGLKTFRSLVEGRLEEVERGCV
Procedure: (§1) The 2,6-disubstituted purine compounds are ATP-competitive IPK inhibitors. […] The amount of IP3 and kinase used for each recombinant enzyme was determined following the manufacturer’s instructions, and this concentration was used to assess the inhibitory properties of TNP analogues against each of the recombinant enzymes.
(§2) The analogues were dissolved in DMSO. For the assay, the inhibitors were added to the reaction mixture to achieve a final concentration of 50 µM in 5% DMSO (1:20 dilution). To achieve inhibitor concentrations lower than 50 µM in the assay, the inhibitor stock was first serially diluted two-fold in DMSO and added to the reaction mixture, to achieve concentrations ranging between 0.8 μM and 50 µM in 5% DMSO. Once all analogues and their dilution series had been added, the reaction was started by adding an optimal amount of recombinant IP3-4K enzyme. The reaction was stopped after 10-min incubation at room temperature by adding a 50 µL of Kinase-Glo® reagent. The mixture was incubated at room temperature in the dark for 10–15 min. Luminescence (RLU) was measured using a SpectraMax iD5 and an integration time of 0.5 s. Percent enzyme activity was defined as (RLUnegative − RLUsample)/(RLUnegative − RLUpositive) × 100. ‘Positive’ refers to 100% enzyme activity (no inhibitor used as the positive control), while ‘negative’ refers to 0% enzyme activity (no enzyme used as the negative control).
(§3) Next, we determined the inhibitory properties of TNP. TNP is an ATP-competitive inhibitor [34]. […] IP3 and enzyme concentrations were also optimised following the manufacturer’s instructions. […] This optimal amount of IP3 was then used to test varying concentrations of the kinase ranging from 0 to 20 ng/µL. The amount of kinase that produced luminescence values in the linear range of the kinase titration curve was deemed to be the optimal kinase amount.

[2] = test system: CnArg1 (IP3-4K from C. neoformans); experiment: as above; assay type: biochemical; conditions: selectivity, ratio higher than 1 = more selective for CnArg1
Procedure: as §1, §2, §3

HsIPMK [3] = molecular target: T1, HsIPMK (Homo sapiens, UniProt Q8NFU5); experiment: Kinase-Glo enzyme inhibition assay, recombinant HsIPMK; also: 6 ng/µL enzyme; assay type: biochemical; set-up: GST (N, cleaved yes); made in house; host or cells: E. coli BL21 (DE3); plasmid made by GenScript
T1 sequence (Q8NFU5 whole entry): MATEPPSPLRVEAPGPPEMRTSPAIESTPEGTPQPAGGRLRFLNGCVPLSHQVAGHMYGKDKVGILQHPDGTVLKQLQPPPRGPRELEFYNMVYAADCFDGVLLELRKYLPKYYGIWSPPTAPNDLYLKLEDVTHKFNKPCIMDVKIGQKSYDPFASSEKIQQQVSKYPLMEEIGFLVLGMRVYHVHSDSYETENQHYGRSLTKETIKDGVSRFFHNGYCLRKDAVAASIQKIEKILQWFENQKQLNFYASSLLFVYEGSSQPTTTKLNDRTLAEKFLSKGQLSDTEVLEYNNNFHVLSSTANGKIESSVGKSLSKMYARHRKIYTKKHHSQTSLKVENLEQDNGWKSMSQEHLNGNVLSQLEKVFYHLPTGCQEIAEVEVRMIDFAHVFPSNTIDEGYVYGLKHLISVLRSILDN
Procedure: as §1, §2, §3

Solubility observations = assay type: physicochemical; conditions: for Solubility in SPR analysis: SPR running buffer with 5% DMSO, KD could not be determined; for Solubility in enzyme assay conditions: 5% DMSO
CaIpk2 = CaIpk2 (Candida albicans, UniProt Q59YE9); conditions: 200 µM IP3, ATP 25–400 µM
CaIpk2, sequence (Q59YE9 1-350): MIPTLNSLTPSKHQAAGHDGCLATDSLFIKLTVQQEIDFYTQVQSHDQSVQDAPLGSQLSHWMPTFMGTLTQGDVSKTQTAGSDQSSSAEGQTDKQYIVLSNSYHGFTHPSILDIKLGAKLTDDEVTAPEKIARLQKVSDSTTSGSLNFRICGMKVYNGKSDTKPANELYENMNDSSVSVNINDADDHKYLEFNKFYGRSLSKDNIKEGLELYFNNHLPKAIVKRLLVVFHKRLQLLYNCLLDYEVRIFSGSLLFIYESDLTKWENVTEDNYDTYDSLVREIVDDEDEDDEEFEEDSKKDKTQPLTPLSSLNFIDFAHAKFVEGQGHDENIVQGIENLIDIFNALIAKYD
Procedure: (§4) The kinetic properties of the purified recombinant enzymes were determined and compared using a Kinase-Glo® Max Luminescent Kinase Assay kit (Promega, Madison, WI, USA) in a reaction buffer consisting of 20 mM HEPES pH 6.8, 100 mM NaCl, 6 mM MgCl2, 20 µg/mL BSA, 1 mM DTT [14]. The IP3 concentration was fixed at 200 µM. The ATP starting concentrations ranged between 25 µM to 400 µM and the ATP remaining after up to 10-min reaction time was assessed by adding Kinase-Glo® reagent. An ATP standard curve (0–500 µM) was also generated using the same kit. The ATP concentration remaining was measured as luminescence using a SpectraMax iD5 plate reader. The relative luminescence unit (RLU) was converted to ATP concentration using the ATP standard curve. The reaction velocity was calculated for each starting ATP concentration and the data was fitted to the Michaelis-Menten equation using GraphPad Prism 9 to obtain Vmax and Km values.

HsIPMK [4] = molecular target: T1, HsIPMK; conditions: 200 µM IP3, ATP 25–400 µM
Procedure: as §4

rat IPMK [5] = test system: rat IPMK; set-up: method as in PMID 24670057; conditions: read-out: Km of rat IPMK for ATP; IP3 used as the substrate; cited from earlier work
HsIPMK [6] = molecular target: T1, HsIPMK; conditions: read-out: Km for ATP, HsIPMK, cited from earlier work
[7] = test system: CaIpk2 (IP3-4K from C. albicans); experiment: Kinase-Glo enzyme inhibition assay, recombinant CaIpk2; assay type: biochemical, Candida albicans; conditions: tested up to 50 µM; 10 µM ATP, 25 µM IP3
Procedure: as §1
as §2, with “Percent enzyme activity was defined as (RLUnegative − RLUsample)/(RLUnegative − RLUpositive) × 100. ‘Positive’ refers to 100% enzyme activity (no inhibitor used as the positive control), while ‘negative’ refers to 0% enzyme activity (no enzyme used as the negative control).” left out
Next, we determined the inhibitory properties of TNP. […] The amount of kinase that produced luminescence values in the linear range of the kinase titration curve was deemed to be the optimal kinase amount.

IP6K = test system: IP6K; set-up: method as in PMID 19208622; conditions: read-out: IC50 against IP6K; cited from earlier work
human IP3K = test system: human IP3K; set-up: method as in PMID 12210991; conditions: read-out: IC50 against IP3K; cited from earlier work
rat IPMK [8] = test system: rat IPMK; set-up: method as in PMID 24670057; conditions: at a concentration of 10 µM; cited from earlier work

FC(F)(F)Oc1ccccc1CNc1nc(NCc2ccccc2)c2nc[nH]c2n1 [Compound 20]
IC50 [1]: 71 ± 12 µM

COCCNc1nc(NCc2cccc(C(=O)OC)c2)nc2[nH]cnc12 [Compound 33]
IC50 [1]: 38 ± 5 µM
HsIPMK/CnArg1 IC50 ratio [2]: 3.8
IC50 (HsIPMK [3]): 144 ± 55 µM

COCCNc1nc(NCc2ccc(OC)cc2)nc2[nH]cnc12 [Compound 38]
IC50 [1]: 44 ± 6 µM

c1ccc(CNc2nc(NCc3ncccn3)nc3[nH]cnc23)cc1 [Compound 25]
CnArg1 IC50 [1]: Not inhibitory

FC(F)(F)c1cccc(CNc2nc(NCc3ccccc3)c3nc[nH]c3n2)c1 [Compound 9]
IC50 [1]: 28 ± 7 µM
HsIPMK/CnArg1 IC50 ratio [2]: 1.1
Solubility in SPR analysis (Solubility observations): Poor solubility—ND
IC50 (HsIPMK [3]): 32 ± 3 µM

NCc1cccc(CNc2nc(NCc3ccccc3)c3[nH]cnc3n2)c1 [Compound 15]
IC50 [1]: 46 ± 22 µM

COCCNc1nc(NCc2cccc(C(F)(F)F)c2)nc2[nH]cnc12 [Compound 30]
HsIPMK/CnArg1 IC50 ratio [2]: 2.4

COCCNc1nc(NCc2ccccc2)c2nc[nH]c2n1 [Compound 29]
IC50 [1]: 75 ± 9 µM

c1ccc(CNc2nc(NCC3CCOCC3)nc3[nH]cnc23)cc1 [Compound 27]
IC50 [1]: 35 ± 2 µM
HsIPMK/CnArg1 IC50 ratio [2]: 3.5
IC50 (HsIPMK [3]): 123 ± 80 µM

COCCNc1nc(NCCc2ccc(OC)cc2)nc2[nH]cnc12 [Compound 39]
IC50 [1]: 22 ± 3 µM
HsIPMK/CnArg1 IC50 ratio [2]: 0.9
IC50 (HsIPMK [3]): 19 ± 1 µM

CC(C)n1cnc2c(NCc3ccccc3)nc(NCc3cccc(C(F)(F)F)c3)nc21 [Compound 45]
CnArg1 IC50 [1]: did not have any inhibitory activity

FC(F)(F)Oc1cccc(CNc2nc(NCc3ccccc3)c3nc[nH]c3n2)c1 [Compound 12]
IC50 [1]: 77 ± 14 µM

FC(F)(F)Oc1ccc(CNc2nc(NCc3ccccc3)c3nc[nH]c3n2)cc1 [Compound 22]
CnArg1 IC50 [1]: Not inhibitory

COCCNc1nc(NCc2cccc(O)c2)nc2[nH]cnc12 [Compound 36]
IC50 [1]: 55 ± 6 µM

COCCNc1nc(NCc2cccc(I)c2)nc2[nH]cnc12 [Compound 32]
IC50 [1]: 12 ± 1 µM
HsIPMK/CnArg1 IC50 ratio [2]: 4.0
IC50 (HsIPMK [3]): 48 ± 3 µM

COc1ccccc1CNc1nc(NCc2ccccc2)c2nc[nH]c2n1 [Compound 24]
IC50 [1]: 24 ± 1 µM
HsIPMK/CnArg1 IC50 ratio [2]: 3.7
IC50 (HsIPMK [3]): 89 ± 9 µM

COc1cccc(CNc2nc(NCc3ccccc3)c3nc[nH]c3n2)c1 [Compound 13]
HsIPMK/CnArg1 IC50 ratio [2]: 6.0

FC(F)(F)c1cccc(CNc2nc(NC3CCOCC3)c3nc[nH]c3n2)c1 [Compound 42]
HsIPMK/CnArg1 IC50 ratio [2]: 3.7

FC(F)Oc1cccc(CNc2nc(NCc3ccccc3)c3nc[nH]c3n2)c1 [Compound 10]
IC50 [1]: 20 ± 1 µM
HsIPMK/CnArg1 IC50 ratio [2]: 2.8
IC50 (HsIPMK [3]): 55 ± 2 µM

Cc1cccc(CNc2nc(NCc3ccccc3)c3nc[nH]c3n2)c1 [Compound 11]
Solubility in enzyme assay conditions (Solubility observations): poorly soluble; also recorded: Low solubility—ND

COCCNc1nc(NCc2cccc(C(=O)O)c2)nc2[nH]cnc12 [Compound 34]
CnArg1 IC50 [1]: Not inhibitory

Nc1ncnc2c1ncn2[C@@H]1O[C@H](COP(=O)(O)OP(=O)(O)OP(=O)(O)O)[C@@H](O)[C@H]1O [ATP]
Vmax, CaIpk2 (CaIpk2): 21 ± 3 µmol ATP/mg protein/min
Vmax, HsIPMK (HsIPMK [4]): 0.6 ± 0.07 µmol ATP/mg protein/min
Km (HsIPMK [4]; read-out: Km for ATP, HsIPMK, mean ± SEM): 128 ± 35 µM
Km (rat IPMK [5]): 64 µM
Km (HsIPMK [6]; IP4 used as the substrate): 10 µM
Km (HsIPMK [6]; PIP2 used as the substrate): 61 ± 6 µM

OCCNc1nc(NCc2ccccc2)c2[nH]cnc2n1 [Compound 28]
IC50 [1]: 127 ± 32 µM

COCCNc1nc(NCc2cccc(Br)c2)nc2[nH]cnc12 [Compound 31]
IC50 [1]: 29 ± 3 µM
HsIPMK/CnArg1 IC50 ratio [2]: 1.5
IC50 (HsIPMK [3]): 43 ± 4 µM

FC(F)(F)c1ccccc1CNc1nc(NCc2ccccc2)c2nc[nH]c2n1 [Compound 18]
Solubility in enzyme assay conditions (Solubility observations): poorly soluble; also recorded: Low solubility—ND

FC(F)(F)Oc1ccccc1CNc1nc(NCc2ccccc2)c2nc[nH]c2n1 [Compound 21]
IC50 [1]: 57 ± 6 µM

COCCNc1nc(NCc2cccc(Br)c2)nc2c1ncn2C [Compound 46]
CnArg1 IC50 [1]: did not have any inhibitory activity

FC(F)(F)c1cccc(CNc2nc(NCc3cccnc3)c3nc[nH]c3n2)c1 [Compound 43]
IC50 [1]: 27 ± 2 µM
HsIPMK/CnArg1 IC50 ratio [2]: 2.8
IC50 (HsIPMK [3]): 75 ± 8 µM

O=[N+]([O-])c1ccc(CNc2nc(NCc3cccc(C(F)(F)F)c3)nc3[nH]cnc23)cc1 [TNP, N2-(m-trifluorobenzylamino)-N6-(p-nitrobenzylamino)purine]
HsIPMK/CnArg1 IC50 ratio [2]: 0.3
Inhibition of CaIpk2 [7]: did not inhibit; also recorded: no inhibitory activity
Solubility in SPR analysis (Solubility observations): Poor solubility—ND
IC50 (IP6K): 0.47 µM
IC50 (human IP3K): 10 µM
Inhibition of rat IPMK (rat IPMK [8]): does not inhibit

Brc1cccc(CNc2nc(NCc3ccccc3)c3nc[nH]c3n2)c1 [Compound 14]
IC50 [1]: 44 ± 2 µM

FC(F)(F)c1ccc(CNc2nc(NCc3ccccc3)c3nc[nH]c3n2)cc1 [Compound 19]
Solubility in enzyme assay conditions (Solubility observations): poorly soluble; also recorded: Low solubility—ND

Cn1ccnc1CNc1nc(NCc2ccccc2)c2nc[nH]c2n1 [Compound 26]
CnArg1 IC50 [1]: Not inhibitory

COCCNc1nc(NCc2cccnc2)nc2[nH]cnc12 [Compound 35]
IC50 [1]: 87 ± 9 µM

COCCNc1nc(Nc2ccc(OC)cc2)nc2[nH]cnc12 [Compound 40]
IC50 [1]: 14 ± 1 µM
HsIPMK/CnArg1 IC50 ratio [2]: 0.4
IC50 (HsIPMK [3]): 5 ± 1 µM

COc1ccc(CNc2nc(NCc3cccc(C(F)(F)F)c3)nc3[nH]cnc23)cc1 [Compound 44]
IC50 [1]: 82 ± 13 µM

FC(F)(F)c1cccc(CNc2nc(N3CCOCC3)c3nc[nH]c3n2)c1 [Compound 41]
IC50 [1]: 24 ± 1 µM
HsIPMK/CnArg1 IC50 ratio [2]: 3.4
IC50 (HsIPMK [3]): 82 ± 9 µM

COC(=O)c1cccc(CNc2nc(NCc3ccccc3)c3nc[nH]c3n2)c1 [Compound 16]
IC50 [1]: 14 ± 1 µM
HsIPMK/CnArg1 IC50 ratio [2]: 3.4
IC50 (HsIPMK [3]): 48 ± 2 µM

Fc1ccc(CNc2nc(NCc3ccccc3)c3nc[nH]c3n2)cc1 [Compound 23]
IC50 [1]: 21 ± 1 µM
HsIPMK/CnArg1 IC50 ratio [2]: 2.6
IC50 (HsIPMK [3]): 55 ± 4 µM

O=C(O)c1cccc(CNc2nc(NCc3ccccc3)c3nc[nH]c3n2)c1 [Compound 17]
IC50 [1]: 45 ± 3 µM
